From ChEMBL document CHEMBL5724914, “Linking interpersonal differences in gut microbiota composition and drug biotransformation activity” (2024)

Experiments:
[1] = human gut metagenome, 24 h, 2 µM
[2] = (§1) The drug is tested on WLS-170 corresponding to human gut metagenome with ENA study accession number: PRJEB37062 and ENA sample accession number: ERS12561762 for biotransformation under anaerobic condition. The drug concentrations were measured over 9 timepoints collected between 0 and 24 hours of incubation by liquid-chromatography-coupled mass spectrometry (LC–MS); conditions: 2 µM
[3] = human gut metagenome, 24 h, 2 µM; remark: listed apart in the source
[4] = as §1, with “Z-002” for “WLS-170”, “rabbit” for “human”, “ERS12561802” for “ERS12561762”; conditions: 2 µM
[5] = as §1, with “Z-001” for “WLS-170”, “mouse” for “human”, “ERS12561801” for “ERS12561762”; conditions: 2 µM
[6] = as §1, with “Z-007” for “WLS-170”, “rat” for “human”, “ERS12561807” for “ERS12561762”; conditions: 2 µM
[7] = human gut metagenome, 24 h, 2 µM; remark: listed apart in the source
[8] = human gut metagenome, 24 h, 2 µM; remark: listed apart in the source
[9] = human gut metagenome, 24 h, 2 µM; remark: listed apart in the source
[10] = human gut metagenome, 24 h, 2 µM; remark: listed apart in the source
[11] = as §1, with “WLS-350” for “WLS-170”, “ERS12561789” for “ERS12561762”; conditions: 2 µM
[12] = human gut metagenome, 24 h, 2 µM; remark: listed apart in the source
[13] = human gut metagenome, 24 h, 2 µM; remark: listed apart in the source
[14] = human gut metagenome, 24 h, 2 µM; remark: listed apart in the source
[15] = as §1, with “WLS-027” for “WLS-170”, “ERS12561744” for “ERS12561762”; conditions: 2 µM
[16] = as §1, with “Z-017” for “WLS-170”, “mouse” for “human”, “ERS12561816” for “ERS12561762”; conditions: 2 µM
[17] = human gut metagenome, 24 h, 2 µM; remark: listed apart in the source
[18] = as §1, with “WLS-052” for “WLS-170”, “ERS12561747” for “ERS12561762”; conditions: 2 µM
[19] = as §1, with “Z-012” for “WLS-170”, “to” for “to human gut”, “ERS12561812” for “ERS12561762”; conditions: 2 µM
[20] = as §1, with “Z-021” for “WLS-170”, “to” for “to human gut”, “ERS12561820” for “ERS12561762”; conditions: 2 µM
Also: call rule not given here.

Row | Compound | Bacterial Biotransformation [1] | Bacterial Biotransformation [2] | Bacterial Biotransformation [3] | Bacterial Biotransformation [4] | Bacterial Biotransformation [5] | Bacterial Biotransformation [6] | Bacterial Biotransformation [7] | Bacterial Biotransformation [8] | Bacterial Biotransformation [9] | Bacterial Biotransformation [10] | Bacterial Biotransformation [11] | Bacterial Biotransformation [12] | Bacterial Biotransformation [13] | Bacterial Biotransformation [14] | Bacterial Biotransformation [15] | Bacterial Biotransformation [16] | Bacterial Biotransformation [17] | Bacterial Biotransformation [18] | Bacterial Biotransformation [19] | Bacterial Biotransformation [20]
1 | CCC1(c2ccc(N)cc2)CCC(=O)NC1=O (stereo not drawn) [AMINOGLUTETHIMIDE] | Compound NOT metabolized | Compound NOT metabolized | Compound NOT metabolized | Compound NOT metabolized | Compound NOT metabolized | Compound NOT metabolized | Compound NOT metabolized | Compound NOT metabolized | Compound NOT metabolized | Compound NOT metabolized | Compound NOT metabolized | Compound NOT metabolized | Compound NOT metabolized | Compound NOT metabolized | Compound NOT metabolized | Compound NOT metabolized | Compound NOT metabolized | Compound NOT metabolized | Compound NOT metabolized | 
2 | C[C@@H]1CC[C@H]2[C@@H](C)C(=O)O[C@@H]3O[C@@]4(C)CC[C@@H]1[C@]32OO4 [ARTEMISININ] | Compound metabolized | Compound metabolized |  |  |  |  | Compound metabolized | Compound metabolized | Compound metabolized | Compound metabolized |  | Compound metabolized |  | Compound metabolized | Compound metabolized |  | Compound metabolized | Compound metabolized |  | Compound metabolized
3 | OC(CCN1CCCCC1)(c1ccccc1)C1CC2C=CC1C2 (stereo not drawn) [BIPERIDEN] | Compound metabolized | Compound metabolized | Compound NOT metabolized |  |  |  | Compound metabolized | Compound metabolized | Compound metabolized | Compound NOT metabolized | Compound NOT metabolized | Compound NOT metabolized | Compound metabolized | Compound NOT metabolized | Compound NOT metabolized |  | Compound NOT metabolized | Compound NOT metabolized |  | 
4 | CC(=O)O[C@]1(C(C)=O)CC[C@H]2[C@@H]3C=C(Cl)C4=CC(=O)[C@@H]5C[C@@H]5[C@]4(C)[C@H]3CC[C@@]21C [CYPROTERONE ACETATE] | Compound NOT metabolized | Compound metabolized | Compound metabolized | Compound metabolized | Compound metabolized |  | Compound metabolized | Compound metabolized | Compound metabolized | Compound metabolized | Compound metabolized | Compound metabolized | Compound metabolized | Compound metabolized | Compound metabolized |  | Compound metabolized | Compound metabolized |  | 
5 | CN1C[C@H](C(=O)N[C@]2(C)O[C@@]3(O)[C@@H]4CCCN4C(=O)[C@H](Cc4ccccc4)N3C2=O)C=C2c3cccc4[nH]cc(c34)C[C@H]21.CN1C[C@H](C(=O)N[C@]2(C)O[C@@]3(O)[C@@H]4CCCN4C(=O)[C@H](Cc4ccccc4)N3C2=O)C=C2c3cccc4[nH]cc(c34)C[C@H]21.O=C(O)C(O)C(O)C(=O)O [ERGOTAMINE TARTRATE] | Compound NOT metabolized | Compound metabolized | Compound metabolized |  |  | Compound NOT metabolized | Compound metabolized | Compound metabolized | Compound metabolized | Compound metabolized | Compound metabolized | Compound metabolized | Compound metabolized | Compound NOT metabolized | Compound metabolized |  | Compound metabolized | Compound metabolized |  | 
6 | O=C1[C@H](CC[C@H](O)c2ccc(F)cc2)[C@@H](c2ccc(O)cc2)N1c1ccc(F)cc1 [EZETIMIBE] | Compound NOT metabolized | Compound metabolized | Compound NOT metabolized | Compound NOT metabolized | Compound NOT metabolized | Compound NOT metabolized | Compound NOT metabolized | Compound NOT metabolized | Compound NOT metabolized | Compound NOT metabolized | Compound NOT metabolized | Compound metabolized | Compound NOT metabolized | Compound NOT metabolized | Compound NOT metabolized | Compound NOT metabolized | Compound NOT metabolized | Compound NOT metabolized | Compound NOT metabolized | 
7 | COC(=O)C1=C(C)NC(C)=C(C(=O)OC(C)C)C1c1cccc2nonc12 (stereo not drawn) [ISRADIPINE] | Compound NOT metabolized | Compound metabolized | Compound metabolized | Compound metabolized | Compound NOT metabolized |  | Compound metabolized | Compound metabolized | Compound metabolized | Compound metabolized | Compound metabolized | Compound metabolized | Compound metabolized | Compound metabolized | Compound metabolized |  | Compound metabolized | Compound metabolized |  | 
8 | CNC(=C[N+](=O)[O-])NCCSCc1csc(CN(C)C)n1 [NIZATIDINE] | Compound metabolized | Compound metabolized | Compound NOT metabolized | Compound NOT metabolized | Compound NOT metabolized | Compound NOT metabolized | Compound metabolized | Compound metabolized | Compound metabolized | Compound NOT metabolized | Compound NOT metabolized | Compound metabolized | Compound metabolized | Compound NOT metabolized | Compound NOT metabolized |  | Compound NOT metabolized | Compound NOT metabolized | Compound NOT metabolized | Compound NOT metabolized
9 | CN(C(=O)CN(CCO)CC(=O)N(C)C(C)(C)Cc1ccccc1)C(C)(C)Cc1ccccc1 [OXETHAZAINE] | Compound NOT metabolized | Compound metabolized | Compound metabolized |  |  |  | Compound metabolized | Compound metabolized | Compound metabolized | Compound metabolized | Compound metabolized | Compound metabolized | Compound metabolized | Compound metabolized | Compound metabolized |  | Compound metabolized | Compound metabolized |  | 
10 | Cc1ccc(/C(=C\CN2CCCC2)c2ccccn2)cc1 [TRIPROLIDINE] | Compound NOT metabolized | Compound metabolized | Compound metabolized | Compound NOT metabolized | Compound NOT metabolized | Compound NOT metabolized | Compound NOT metabolized | Compound metabolized | Compound NOT metabolized | Compound NOT metabolized | Compound NOT metabolized | Compound NOT metabolized | Compound NOT metabolized | Compound NOT metabolized | Compound NOT metabolized |  | Compound NOT metabolized | Compound NOT metabolized | Compound NOT metabolized | Compound NOT metabolized
